Laboratory results published in PMC4607407 (PLoS ONE, 2015).
Read-outs that look alike come from different tables or passages of the source.

Key:
NCI-H1650 = assay: Cell proliferation MTS assay; format: cell-based; conditions: Homo sapiens, read-out: IC50 NCI-H1650 (PTEN null)
Procedure: (§1) IC50 was calculated using Activity Base. Data shown as mean ± standard deviation. […] (DOCX) Click here for additional data file.
(§2) Treated cells were incubated at 37°C for 72 hours in 5% CO2.
(§3) The GI50 was then determined using Microsoft ExcelFit software in Activity Base.

KU-19-19 = assay: Cell proliferation MTS assay; format: cell-based; conditions: Homo sapiens, read-out: IC50 KU-19-19 (AKT1-E17K, NrasQ61R)
Procedure: as §1, §2, §3

MDA-MB-453 = assay: Cell proliferation MTS assay; format: cell-based; conditions: Homo sapiens, read-out: IC50 MDA-MB-453 (PIK3CAH1047R)
Procedure: as §1, §2, §3

AKT1-E17K = target: T1, AKT1-E17K (Homo sapiens, UniProt P31749, E17K); assay: AKT1 plasma membrane translocation in NIH 3T3 cells; format: cell-based; conditions: NIH 3T3, 1 μM for 2 hours, PDGF-BB 50 ng/ml 10 minutes
T1 construct: host or cells: NIH 3T3 cells
T1 sequence (P31749 whole entry E17K): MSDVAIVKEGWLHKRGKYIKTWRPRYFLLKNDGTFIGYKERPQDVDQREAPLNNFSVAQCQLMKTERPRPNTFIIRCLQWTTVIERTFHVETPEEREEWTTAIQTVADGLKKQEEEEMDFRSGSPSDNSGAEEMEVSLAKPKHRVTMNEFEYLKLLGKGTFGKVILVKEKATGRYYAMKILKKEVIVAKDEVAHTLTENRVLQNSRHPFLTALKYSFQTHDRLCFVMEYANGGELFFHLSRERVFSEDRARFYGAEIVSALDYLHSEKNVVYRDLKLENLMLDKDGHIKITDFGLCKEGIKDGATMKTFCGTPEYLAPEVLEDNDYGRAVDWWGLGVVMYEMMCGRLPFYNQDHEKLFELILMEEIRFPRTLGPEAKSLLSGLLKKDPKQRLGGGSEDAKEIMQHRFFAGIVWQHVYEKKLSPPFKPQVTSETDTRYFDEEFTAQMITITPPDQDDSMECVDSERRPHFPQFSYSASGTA
Procedure: (§4) Cells (15,000 cells per chamber) were plated into a Nunc Lab-Tek Chambered Coverglass System (Thermo Fisher Scientific, Waltham, MA) containing full media without antibiotics. […] Next, the cells were stimulated with PDGF (PeproTech, Rocky Hill, NJ) at 50 ng/ml for 10 minutes. Cells were washed with PBS and then fixed with 200 μl paraformaldehyde fixation buffer (3% paraformaldehyde, 2% sucrose in PBS, pre-warmed at […]). After washing with PBS, cells were blocked and permeabolized with 0.1% TX-100 + 1% BSA in PBS for 15 minutes at room temperature. Next, 200 μl DAPI (1 μg/ml in PBS) was used to counterstain the nuclei at room temperature in darkness for 15 minutes. Samples were then rinsed with cold PBS and stored at 4°C until imaging. Images were captured using an Olympus inverted epi-fluorescent microscope (Olympus Corporation of America, Center Valley, PA) with a 60x oil immersion objective.

AKT1-WT = target: T2, AKT1-WT (Homo sapiens, UniProt P31749); assay: as above; format: cell-based; conditions: NIH 3T3, 1 μM for 2 hours, PDGF-BB 50 ng/ml 10 minutes
T2 construct: host or cells: NIH 3T3 cells
T2 sequence (P31749 whole entry): as the sequence (P31749 whole entry E17K) above, with K17E counted along it
Procedure: as §4

KPL-4 tumors = assay: KPL-4 xenograft combination study; format: in vivo, mice; conditions: vs untreated control; ARQ 092 60 mg/kg oral daily 12 days; trastuzumab 15 mg/kg iv every three days; paclitaxel 15 mg/kg iv every 6 days
Procedure: (§5) The tumor length and width (mm) were measured using a digital caliper. The estimated tumor volume (mm^3) was calculated according to the following formula: 0.5 x (tumor length) x (tumor width)^2, and reported as the mean ± SEM.

[1] = system: melanoma PDX tumor model (ST052C); assay: Vemurafenib-resistant melanoma PDX combination study; format: in vivo, mice; conditions: ARQ 092 100 mg/kg 5 days on 2 days off; trametinib 3 mg/kg; p<0.05
Procedure: Athymic nude mice (Charles River Laboratories, Wilmington, MA) were subcutaneously implanted with tumor fragments and the study was initiated seven days later when the mean tumor volume was approximately 140 mm^3. […] After 13 days, the dosing schedule for trametinib was reduced to a schedule of 5 days on and 2 days off.
as §5

CC(C)NC[C@@H](C(=O)N1CCN(c2ncnc3c2[C@H](C)C[C@H]3O)CC1)c1ccc(Cl)cc1 [GDC-0068, reference compound]
IC50 (NCI-H1650; NCI-H1650, 72 h): > 33.3 µM | IC50 (KU-19-19; KU-19-19, 72 h): 55 ± 5.1 µM | IC50 (MDA-MB-453; MDA-MB-453, 72 h): 1000 ± 160 nM | plasma membrane translocation of AKT1-E17K (AKT1-E17K): stimulated translocation | plasma membrane translocation of AKT1-WT (AKT1-WT): stimulated translocation

NC1(c2ccc(-c3nc4ccn5c(=O)[nH]nc5c4cc3-c3ccccc3)cc2)CCC1 [MK-2206, reference compound]
IC50 (NCI-H1650; NCI-H1650, MTS, 72 hours, mean ± standard deviation): 15.2 ± 3.01 µM | IC50 (KU-19-19; KU-19-19, MTS, 72 hours, mean ± standard deviation): 21.5 ± 5.3 µM | IC50 (MDA-MB-453; MDA-MB-453, MTS, 72 hours, mean ± standard deviation): 260 ± 20 nM | plasma membrane translocation of AKT1-E17K (AKT1-E17K): only weakly inhibited | plasma membrane translocation of AKT1-WT (AKT1-WT): inhibited

CC(=O)O[C@H]1C(=O)[C@@]2(C)[C@H]([C@H](OC(=O)c3ccccc3)[C@]3(O)C[C@H](OC(=O)[C@H](O)[C@@H](NC(=O)c4ccccc4)c4ccccc4)C(C)=C1C3(C)C)[C@]1(OC(C)=O)CO[C@@H]1C[C@@H]2O [paclitaxel, reference compound]
tumor growth inhibition (KPL-4 tumors): 41%

CC(=O)Nc1cccc(-n2c(=O)n(C3CC3)c(=O)c3c(Nc4ccc(I)cc4F)n(C)c(=O)c(C)c32)c1 [trametinib, reference compound]
TGI [1]: 26%
